Holding throughout (experiment): relative viability (nuclei count vs DMSO), 5 days (fraction); higher = more cells survive
Compound in assay [1]: Cc1ccc(C(=O)Nc2cccc(C(F)(F)F)c2)cc1Nc1cncc(C(N)=O)c1 [ALW-II-49-7] + Nc1ncn([C@H]2C[C@H](O)[C@@H](CO)O2)c(=O)n1 [Decitabine] (partner 2 µM)
The method, boiled down: (§1)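 Relative viability is defined as nuclei in treated wells over nuclei in vehicle wells. Duplicate plates were run and medians reported. Lung cancer cell lines in 1536-well plates were dosed by pin tool one day after seeding, with one drug or with a fixed anchor-drug dose plus five library-drug doses (not always all listed) in √10 steps, and nuclei were counted after 5 days.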

Compound in assay [2]: Cc1ccc(C(=O)Nc2cccc(C(F)(F)F)c2)cc1Nc1cncc(C(N)=O)c1 [ALW-II-49-7] + Cc1nc(NC(=O)N2CCC[C@H]2C(N)=O)sc1-c1ccnc(C(C)(C)C(F)(F)F)c1 [Alpelisib] (partner 2 µM)
The method, boiled down:
as §1

Compound in assay [3]: Cc1ccc(C(=O)Nc2cccc(C(F)(F)F)c2)cc1Nc1cncc(C(N)=O)c1 [ALW-II-49-7] + Cc1nc(Nc2ncc(C(=O)Nc3c(C)cccc3Cl)s2)cc(N2CCN(CCO)CC2)n1 [Dasatinib] (partner 0.075 µM)
In short, it runs like this:
as §1

Compound in assay [4]: Cc1nc(Nc2ncc(C(=O)Nc3c(C)cccc3Cl)s2)cc(N2CCN(CCO)CC2)n1 [Dasatinib] + Nc1nc2[nH]cc(CCc3ccc(C(=O)N[C@@H](CCC(=O)O)C(=O)O)cc3)c2c(=O)[nH]1 [Pemetrexed] (partner 0.2 µM)
The method, boiled down: as §1

For UMC-11, the relative viability in assay [1] (first compound 0.08 µM) came out at 0.642; in assay [1] (first compound 0.253 µM), 0.663; in assay [1] (first compound 0.8 µM), 0.58; in assay [1] (first compound 2.53 µM) it was 0.419; in assay [1] (first compound 8 µM) it was 0.552; in assay [2] (first compound 0.08 µM) it was 0.841. In addition, the relative viability in assay [2] (first compound 0.253 µM) is 1; in assay [2] (first compound 2.53 µM), 1.06; in assay [2] (first compound 8 µM), 0.971; in assay [3] (first compound 0.08 µM) it was 0.428; in assay [3] (first compound 0.253 µM), 0.453; in assay [3] (first compound 0.8 µM), 0.473. Moreover, the relative viability came to 0.456 in assay [3] (first compound 2.53 µM); 0.519 in assay [3] (first compound 8 µM); 0.736 in assay [4] (first compound 0.005 µM); 0.656 in assay [4] (first compound 0.01581 µM); 0.593 in assay [4] (first compound 0.05 µM); 0.469 in assay [4] (first compound 0.1581 µM). In assay [4] (first compound 0.5 µM), the relative viability was determined as 0.391.

These data come from the supplement of paper PMC10307832.
